Experimental data: ChEMBL document CHEMBL1221248, “Synthesis and SAR of (piperazin-1-yl-phenyl)-arylsulfonamides: a novel series of atypical antipsychotic agents” (Bioorg Med Chem Lett, 2010)
Activity calls are given as the source filed them. The calls are words filed in the database; no cut-off is given here.

Experiments:
[1] = target: T1, 5-hydroxytryptamine receptor 6 (Homo sapiens, UniProt P50406); assay: Displacement of [3H]LSD from human 5HT6 receptor expressed in HEK293 cells; assay type: cell-based
Target sequence in this assay (P50406 whole entry): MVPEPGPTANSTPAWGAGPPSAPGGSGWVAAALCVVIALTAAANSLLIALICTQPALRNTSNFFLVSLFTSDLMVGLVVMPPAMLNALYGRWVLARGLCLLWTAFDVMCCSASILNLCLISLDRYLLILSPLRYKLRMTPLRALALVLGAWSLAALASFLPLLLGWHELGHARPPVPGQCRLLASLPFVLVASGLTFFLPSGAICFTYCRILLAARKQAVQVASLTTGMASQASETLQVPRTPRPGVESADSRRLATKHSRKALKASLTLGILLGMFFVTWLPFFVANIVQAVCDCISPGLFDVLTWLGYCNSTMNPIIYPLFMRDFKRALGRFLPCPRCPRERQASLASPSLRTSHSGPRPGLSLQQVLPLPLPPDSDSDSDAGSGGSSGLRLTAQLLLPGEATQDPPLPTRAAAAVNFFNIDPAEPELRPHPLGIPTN

[2] = target: T2, 5-hydroxytryptamine receptor 2C (Homo sapiens, UniProt P28335); assay: Displacement of [3H]mesulergine from human 5HT2C expressed in CHOKI cells; assay type: cell-based
T2 sequence (P28335 whole entry): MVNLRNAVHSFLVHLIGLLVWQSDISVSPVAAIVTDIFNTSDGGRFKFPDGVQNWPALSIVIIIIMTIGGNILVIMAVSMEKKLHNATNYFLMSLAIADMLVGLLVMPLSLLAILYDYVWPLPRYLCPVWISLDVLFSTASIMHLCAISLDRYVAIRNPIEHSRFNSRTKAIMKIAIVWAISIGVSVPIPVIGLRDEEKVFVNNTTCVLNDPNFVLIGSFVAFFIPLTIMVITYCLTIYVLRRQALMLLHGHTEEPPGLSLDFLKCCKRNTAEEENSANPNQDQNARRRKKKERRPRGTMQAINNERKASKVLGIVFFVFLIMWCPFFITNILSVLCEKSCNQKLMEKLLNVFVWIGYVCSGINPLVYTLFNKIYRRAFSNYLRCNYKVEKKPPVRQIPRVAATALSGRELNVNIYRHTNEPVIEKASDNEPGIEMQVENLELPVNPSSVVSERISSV

[3] = target: T1, 5-hydroxytryptamine receptor 6; assay: Antagonist activity at human 5HT6 receptor expressed in human HeLa cells assessed as inhibition of 5-HT-stimulated cAMP production; assay type: functional, cell-based
Target sequence in this assay (P50406 whole entry): as the sequence (P50406 whole entry) above

[4] = species: Homo sapiens; assay: Selectivity ratio of IC50 for human dopamine D2 to IC50 for human 5HT6 receptor
[5] = species: Homo sapiens; assay: Selectivity ratio of IC50 for human dopamine D3 to IC50 for human 5HT2C
[6] = species: Homo sapiens; assay: Selectivity ratio of IC50 for human 5HT7 to IC50 for human 5HT2C
[7] = species: Homo sapiens; assay: Selectivity ratio of IC50 for human 5HT1A to IC50 for human 5HT6 receptor
[8] = species: Homo sapiens; assay: Selectivity ratio of IC50 for human dopamine D3 to IC50 for human 5HT6 receptor
[9] = target: T3, 5-hydroxytryptamine receptor 1A (Homo sapiens, UniProt P08908); assay: Displacement of [3H]8-OH-DPAT from human 5HT1A expressed in CHOKI cells; assay type: cell-based
T3 sequence (P08908 whole entry): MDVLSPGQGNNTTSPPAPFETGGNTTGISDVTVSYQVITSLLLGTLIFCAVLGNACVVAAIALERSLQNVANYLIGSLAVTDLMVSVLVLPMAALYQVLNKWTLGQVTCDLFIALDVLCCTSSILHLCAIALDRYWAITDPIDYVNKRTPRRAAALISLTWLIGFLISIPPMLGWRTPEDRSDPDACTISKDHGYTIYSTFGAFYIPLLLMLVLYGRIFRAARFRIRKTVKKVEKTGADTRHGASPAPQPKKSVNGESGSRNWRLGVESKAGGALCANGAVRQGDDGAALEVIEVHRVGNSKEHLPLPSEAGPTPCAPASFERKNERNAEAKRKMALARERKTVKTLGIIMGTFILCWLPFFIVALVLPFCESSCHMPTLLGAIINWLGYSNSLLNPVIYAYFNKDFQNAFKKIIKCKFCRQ

[10] = species: Homo sapiens; assay: Selectivity ratio of IC50 for human dopamine D4 to IC50 for human 5HT6 receptor
[11] = target: D(3) dopamine receptor (Homo sapiens, UniProt P35462); assay: Displacement of [3H]spiperone from human dopamine D3 receptor expressed in CHOKI cells; assay type: cell-based
[12] = target: T4, 5-hydroxytryptamine receptor 2C (Homo sapiens) (UniProt P28335); assay: Antagonist activity at human 5HT2C expressed in CHO cells assessed as inhibition of 5-HT-stimulated [35S]GTPgamma binding; assay type: functional, cell-based
T4 sequence (whole entry): T2 sequence (P28335 whole entry)

[13] = target: Serotonin 2 receptors; 5-HT2a & 5-HT2c (Homo sapiens) (UniProt P28223+P28335); assay: Selectivity ratio of IC50 for human 5HT2A to IC50 for human 5HT2C
[14] = target: T1, 5-hydroxytryptamine receptor 6; assay: Antagonist activity at human 5HT6 expressed in human HeLa cells assessed as inhibition of 5-HT-stimulated cAMP accumulation
Target sequence in this assay (P50406 whole entry, looked up): as the sequence (P50406 whole entry) above

[15] = species: Homo sapiens; assay: Selectivity ratio of IC50 for human 5HT7 to IC50 for human 5HT6 receptor
[16] = species: Homo sapiens; assay: Selectivity ratio of IC50 for human dopamine D2 to IC50 for human 5HT2C
[17] = species: Homo sapiens; assay: Selectivity ratio of IC50 for human 5HT2A to IC50 for human 5HT6 receptor
[18] = target: 5-hydroxytryptamine receptor 2A (Homo sapiens, UniProt P28223); assay: Displacement of [3H]ketanserin from human 5HT2A expressed in CHOKI cells; assay type: cell-based
[19] = target: D(2) dopamine receptor (Homo sapiens, UniProt P14416); assay: Displacement of [3H]spiperone from human dopamine D2 expressed in CHOKI cells; assay type: cell-based
[20] = target: T5, D(4) dopamine receptor (Homo sapiens, UniProt P21917); assay: Displacement of [3H]spiperone from human dopamine D4 receptor expressed in CHOKI cells; assay type: cell-based
T5 sequence (P21917 whole entry): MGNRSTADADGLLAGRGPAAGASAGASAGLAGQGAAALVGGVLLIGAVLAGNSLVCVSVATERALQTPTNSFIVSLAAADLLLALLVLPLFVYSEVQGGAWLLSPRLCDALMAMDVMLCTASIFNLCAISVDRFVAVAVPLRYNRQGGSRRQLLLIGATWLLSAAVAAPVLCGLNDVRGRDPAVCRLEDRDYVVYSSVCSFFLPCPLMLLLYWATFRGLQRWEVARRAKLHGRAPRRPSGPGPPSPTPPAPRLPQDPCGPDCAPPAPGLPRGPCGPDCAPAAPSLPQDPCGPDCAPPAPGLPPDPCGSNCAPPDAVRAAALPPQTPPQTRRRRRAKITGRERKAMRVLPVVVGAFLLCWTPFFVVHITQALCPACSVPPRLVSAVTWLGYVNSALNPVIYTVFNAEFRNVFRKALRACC

[21] = species: Homo sapiens; assay: Selectivity ratio of IC50 for human dopamine D4 to IC50 for human 5HT2C
[22] = species: Homo sapiens; assay: Selectivity ratio of IC50 for human 5HT1A to IC50 for human 5HT2C
[23] = target: 5-hydroxytryptamine receptor 7 (Homo sapiens, UniProt P34969); assay: Displacement of [3H]LSD from human 5HT7 expressed in CHOKI cells; assay type: cell-based
5-hydroxytryptamine receptor 7, sequence (P34969 whole entry): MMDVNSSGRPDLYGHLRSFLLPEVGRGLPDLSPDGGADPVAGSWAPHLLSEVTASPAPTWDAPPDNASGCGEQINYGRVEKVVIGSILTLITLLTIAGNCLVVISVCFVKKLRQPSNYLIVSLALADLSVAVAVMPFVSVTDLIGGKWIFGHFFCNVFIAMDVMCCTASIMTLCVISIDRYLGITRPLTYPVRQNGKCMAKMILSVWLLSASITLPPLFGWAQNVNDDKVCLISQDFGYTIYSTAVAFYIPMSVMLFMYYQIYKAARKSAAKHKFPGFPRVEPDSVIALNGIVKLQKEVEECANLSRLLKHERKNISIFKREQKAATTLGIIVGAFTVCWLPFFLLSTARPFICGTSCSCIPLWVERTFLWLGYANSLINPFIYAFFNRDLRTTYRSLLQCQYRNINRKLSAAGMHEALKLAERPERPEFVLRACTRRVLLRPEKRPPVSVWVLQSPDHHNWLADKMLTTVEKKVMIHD

5-hydroxytryptamine receptor 2A, sequence (P28223 whole entry): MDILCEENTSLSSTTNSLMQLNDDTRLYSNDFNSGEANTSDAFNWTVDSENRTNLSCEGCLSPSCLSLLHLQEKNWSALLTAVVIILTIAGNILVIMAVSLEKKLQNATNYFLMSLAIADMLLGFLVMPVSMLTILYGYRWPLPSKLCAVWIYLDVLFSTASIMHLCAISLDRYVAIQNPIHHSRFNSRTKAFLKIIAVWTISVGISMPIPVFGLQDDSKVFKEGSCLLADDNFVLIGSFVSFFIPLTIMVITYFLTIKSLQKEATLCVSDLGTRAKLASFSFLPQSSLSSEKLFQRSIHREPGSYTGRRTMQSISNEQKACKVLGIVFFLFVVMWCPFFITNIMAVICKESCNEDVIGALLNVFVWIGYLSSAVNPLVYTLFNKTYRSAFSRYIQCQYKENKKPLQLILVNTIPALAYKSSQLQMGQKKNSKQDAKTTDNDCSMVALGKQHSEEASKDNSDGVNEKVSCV
D(2) dopamine receptor, sequence (P14416 whole entry): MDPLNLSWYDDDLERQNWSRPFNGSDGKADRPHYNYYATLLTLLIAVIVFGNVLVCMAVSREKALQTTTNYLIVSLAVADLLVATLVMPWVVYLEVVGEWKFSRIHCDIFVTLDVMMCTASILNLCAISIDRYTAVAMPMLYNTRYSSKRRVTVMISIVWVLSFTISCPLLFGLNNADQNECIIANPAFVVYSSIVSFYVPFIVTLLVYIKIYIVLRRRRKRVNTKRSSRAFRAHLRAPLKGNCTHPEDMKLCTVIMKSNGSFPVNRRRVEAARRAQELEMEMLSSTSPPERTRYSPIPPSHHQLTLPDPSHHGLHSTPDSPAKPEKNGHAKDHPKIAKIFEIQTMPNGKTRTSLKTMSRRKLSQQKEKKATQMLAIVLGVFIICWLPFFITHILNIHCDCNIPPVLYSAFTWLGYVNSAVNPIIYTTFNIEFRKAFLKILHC
D(3) dopamine receptor, sequence (P35462 whole entry): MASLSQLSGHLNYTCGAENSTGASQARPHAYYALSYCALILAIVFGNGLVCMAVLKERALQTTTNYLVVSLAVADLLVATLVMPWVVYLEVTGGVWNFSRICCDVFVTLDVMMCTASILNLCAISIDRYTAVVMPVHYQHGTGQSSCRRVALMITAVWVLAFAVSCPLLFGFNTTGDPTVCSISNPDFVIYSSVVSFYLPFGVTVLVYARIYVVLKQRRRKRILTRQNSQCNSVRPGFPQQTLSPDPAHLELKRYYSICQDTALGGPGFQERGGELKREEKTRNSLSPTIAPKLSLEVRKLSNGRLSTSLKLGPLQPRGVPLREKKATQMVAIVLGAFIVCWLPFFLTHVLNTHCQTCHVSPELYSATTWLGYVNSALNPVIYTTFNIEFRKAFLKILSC
Serotonin 2 receptors; 5-HT2a & 5-HT2c (Homo sapiens), sequence (P28223 whole entry, looked up, one chain of several): as the sequence (P28223 whole entry) above

CC(C)N(c1ccc(Oc2cccnc2)nc1)S(=O)(=O)c1ccc2ccccc2c1
IC50 [1]: 0.422 µM
IC50 [2]: > 10 µM

CC(C)N(c1cccc(N2CCN(C)CC2)c1)S(=O)(=O)c1ccc2ccccc2c1
inhibition [3]: Active
Ratio IC50 [4]: > 25
Ratio IC50 [5]: > 25
Ratio IC50 [6]: > 25
Ratio IC50 [7]: > 25
IC50 [1]: 0.003 µM
Ratio IC50 [8]: > 25
IC50 [9]: > 1 µM
Ratio IC50 [10]: > 25
IC50 [11]: 0.248 µM
inhibition [12]: Dose-dependent effect
Ratio IC50 [13]: > 25
inhibition [14]: Active
Ratio IC50 [15]: > 25
Ratio IC50 [16]: > 25
Ratio IC50 [17]: > 25
IC50 [18]: 0.118 µM
IC50 [19]: > 10 µM
IC50 [20]: > 1 µM
Ratio IC50 [21]: > 25
Ratio IC50 [22]: > 25
IC50 [2]: 0.004 µM

CC(C)N(c1cccc(N2CCN(C)CC2)c1)S(=O)(=O)c1ccccc1
IC50 [23]: 1.01 µM
IC50 [1]: 0.644 µM
IC50 [9]: 3.4 µM
IC50 [11]: 2.89 µM
IC50 [18]: 0.172 µM
IC50 [19]: > 10 µM
IC50 [20]: > 10 µM
IC50 [2]: 0.021 µM

CC(C)N(c1cccc(N2CCN(C)CC2)c1)S(=O)(=O)c1ccc(Cl)cc1
IC50 [2]: 0.243 µM

CN1CCN(c2cccc(N(Cc3cccnc3)S(=O)(=O)c3ccc4ccccc4c3)c2)CC1
IC50 [2]: 0.034 µM

CC(C)N(C(=O)Nc1ccccc1)c1cccc(N2CCN(C)CC2)c1
IC50 [2]: > 10 µM

CCC(CC)N(c1cccc(N2CCN(C)CC2)c1)S(=O)(=O)c1ccc2ccccc2c1
IC50 [2]: 0.159 µM

CN1CCN(c2cccc(N(C)S(=O)(=O)c3ccc4ccccc4c3)c2)CC1
IC50 [23]: 4.43 µM
IC50 [1]: 0.007 µM
IC50 [9]: 0.095 µM
IC50 [11]: 2.42 µM
IC50 [18]: 1.42 µM
IC50 [19]: > 10 µM
IC50 [20]: > 10 µM
IC50 [2]: 0.036 µM

CC(C)N(c1ccc(N2CCN(C)CC2)cc1)S(=O)(=O)c1ccc2ccccc2c1
IC50 [1]: 0.027 µM
IC50 [2]: 1.72 µM

CN1CCN(c2cccc(N(CC3CCCC3)S(=O)(=O)c3ccc4ccccc4c3)c2)CC1
IC50 [2]: 0.011 µM

CN1CCN(c2cccc(N(CC3CC3)S(=O)(=O)c3ccc4ccccc4c3)c2)CC1
IC50 [23]: 3.04 µM
IC50 [1]: 0.006 µM
IC50 [9]: 0.672 µM
IC50 [11]: 1.43 µM
IC50 [18]: 0.088 µM
IC50 [19]: > 10 µM
IC50 [20]: > 10 µM
IC50 [2]: 0.006 µM

CC(C)N(Cc1ccccc1)c1cccc(N2CCN(C)CC2)c1
IC50 [2]: > 10 µM

CCN(c1cccc(N2CCN(C)CC2)c1)S(=O)(=O)c1ccc2ccccc2c1
IC50 [23]: 2.06 µM
IC50 [1]: 0.003 µM
IC50 [9]: 0.485 µM
IC50 [11]: 1.17 µM
IC50 [18]: 0.218 µM
IC50 [19]: > 10 µM
IC50 [20]: > 10 µM
IC50 [2]: 0.016 µM

CN1CCN(c2cccc(N(Cc3ccccc3)S(=O)(=O)c3ccc4ccccc4c3)c2)CC1
IC50 [23]: 2.04 µM
IC50 [1]: 0.003 µM
IC50 [9]: 0.28 µM
IC50 [11]: 0.943 µM
IC50 [18]: 0.05 µM
IC50 [19]: > 10 µM
IC50 [20]: > 10 µM
IC50 [2]: 0.032 µM

CCC(C)N(c1cccc(N2CCN(C)CC2)c1)S(=O)(=O)c1ccc2ccccc2c1 (centres undefined)
IC50 [2]: 0.168 µM

CC(C)N(c1cccc(N2CCN(C)CC2)c1)S(=O)(=O)c1cccc2ccccc12
IC50 [23]: 2.87 µM
IC50 [1]: 0.016 µM
IC50 [9]: 0.298 µM
IC50 [11]: 1.2 µM
IC50 [18]: 0.122 µM
IC50 [19]: > 10 µM
IC50 [20]: > 10 µM
IC50 [2]: 0.1 µM

CN1CCN(c2cccc(NS(=O)(=O)c3ccc4ccccc4c3)c2)CC1
IC50 [23]: 1.58 µM
IC50 [1]: 0.013 µM
IC50 [9]: 0.057 µM
IC50 [11]: 2.1 µM
IC50 [18]: 1.62 µM
IC50 [19]: > 10 µM
IC50 [20]: > 10 µM
IC50 [2]: 5.15 µM

CC(C)N(C(=O)c1ccc2ccccc2c1)c1cccc(N2CCN(C)CC2)c1
IC50 [2]: 0.42 µM

CC(C)N(c1cccc(N2CCN(C)CC2)c1)S(=O)(=O)c1ccc([N+](=O)[O-])cc1
IC50 [2]: 0.462 µM

CC(C)N(c1cccc(I)c1)S(=O)(=O)c1ccc2ccccc2c1
IC50 [1]: 1.18 µM
IC50 [2]: 0.467 µM

CC(C)N(C(=O)c1ccc(Cl)cc1)c1cccc(N2CCN(C)CC2)c1
IC50 [2]: 7.7 µM

CC(C)N(C(=O)c1ccccc1)c1cccc(N2CCN(C)CC2)c1
IC50 [2]: 4.16 µM

CCCN(c1cccc(N2CCN(C)CC2)c1)S(=O)(=O)c1ccc2ccccc2c1
IC50 [23]: 3.87 µM
Ratio IC50 [4]: > 25
Ratio IC50 [5]: > 25
Ratio IC50 [6]: > 25
Ratio IC50 [7]: > 25
IC50 [1]: 0.004 µM
Ratio IC50 [8]: > 25
IC50 [9]: 3.76 µM
Ratio IC50 [10]: > 25
IC50 [11]: 2.51 µM
Ratio IC50 [13]: > 25
Ratio IC50 [15]: > 25
Ratio IC50 [16]: > 25
Ratio IC50 [17]: > 25
IC50 [18]: 0.389 µM
IC50 [19]: > 10 µM
IC50 [20]: > 10 µM
Ratio IC50 [21]: > 25
Ratio IC50 [22]: > 25
IC50 [2]: 0.007 µM

Cc1ccc(S(=O)(=O)N(c2cccc(N3CCN(C)CC3)c2)C(C)C)cc1
IC50 [2]: 0.106 µM

CC(C)N(c1ccccc1N1CCN(C)CC1)S(=O)(=O)c1ccc2ccccc2c1
IC50 [1]: 2.19 µM
IC50 [2]: 4.64 µM

CC(C)N(C(=O)c1cccc2ccccc12)c1cccc(N2CCN(C)CC2)c1
IC50 [2]: 0.097 µM
